{"source": "the SangsterLogP compilation"}
{"assay": "method code SF-GLC, from DOI: 10.1016/0048-3575(78)90090-1"}
{"smiles": "ClC1C(Cl)C(Cl)C(Br)C(Cl)C1Cl", "note": "(stereo not given)", "logP": 3.74}
{"smiles": "ClC1C(Cl)C(Cl)C(I)C(Cl)C1Cl", "note": "(stereo not given)", "logP": 3.96}
{"smiles": "FC(F)(F)COC1C(Cl)C(Cl)C(Cl)C(Cl)C1Cl", "note": "(stereo not given)", "logP": 4.06}
{"smiles": "CCOC1C(Cl)C(Cl)C(Cl)C(Cl)C1Cl", "note": "(stereo not given)", "logP": 3.69}
{"smiles": "ClC1CC(Cl)C(Cl)C(Cl)C1Cl", "note": "(stereo not given)", "logP": 3.53}
{"smiles": "COC1C(Cl)C(Cl)C(Cl)C(Cl)C1OC", "note": "(stereo not given)", "logP": 2.55}
{"smiles": "COC1C(Cl)C(Cl)C(OC)C(Cl)C1Cl", "note": "(stereo not given)", "logP": 3.15}
{"smiles": "FC1C(Cl)C(Cl)C(Cl)C(Cl)C1Cl", "note": "(stereo not given)", "logP": 3.19}
{"smiles": "CC1C(Cl)C(Cl)C(Cl)C(Cl)C1Cl", "note": "(stereo not given)", "logP": 4.04}
{"smiles": "COC1C(Cl)C(Cl)C(Cl)C(Cl)C1Cl", "note": "(stereo not given)", "logP": 3.14}
{"smiles": "ClC1C(Cl)C(Br)C(Cl)C(Cl)C1Br", "note": "(stereo not given)", "logP": 3.98}
{"smiles": "ClC1C(Cl)C(Cl)C(Br)C(Br)C1Cl", "note": "(stereo not given)", "logP": 3.88}
{"smiles": "OCC1C(Cl)C(Cl)C(Cl)C(Cl)C1Cl", "note": "(stereo not given)", "logP": 2.94}
{"smiles": "CC(=O)Oc1c(Cl)c(Cl)c(Cl)c(Cl)c1Cl", "logP": 3.4}
{"smiles": "COC1CC(Cl)C(Cl)C(Cl)C1Cl", "note": "(stereo not given)", "logP": 2.99}
{"smiles": "CC1C(Cl)C(Cl)C(C)C(Cl)C1Cl", "note": "(stereo not given)", "logP": 4.4}
{"smiles": "COC1C(Cl)C(Cl)C(Cl)C(OC)C1OC", "note": "(stereo not given)", "logP": 1.87}
{"smiles": "ClC1CC(Cl)C(Cl)CC1Cl", "note": "(stereo not given)", "logP": 2.82}
{"smiles": "OC1C(Cl)C(Cl)C(Cl)C(Cl)C1Cl", "note": "(stereo not given)", "logP": 2.54}
{"smiles": "FC1C(Cl)C(Cl)C(Cl)C(Cl)C1Br", "note": "(stereo not given)", "logP": 3.28}
